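Values below derive from 48-hour exposures of cells grown in 96-well plates, with endpoints linearly interpolated between the two concentrations bracketing the appropriate inhibition level. GI50 marks 50% less growth. TGI: total growth inhibition.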
Tests used:
Assay in all cases: growth of human tumour cells (NCI), 48 h
HCC-2998 colon = tested on: HCC-2998 colon
OVCAR-3 ovarian = tested on: OVCAR-3 ovarian
KM12 colon = tested on: KM12 colon
A498 renal = tested on: A498 renal
RPMI-8226 leukemia = tested on: RPMI-8226 leukemia
MDA-MB-231 breast = tested on: MDA-MB-231 breast
OVCAR-5 ovarian = tested on: OVCAR-5 ovarian
HOP-62 NSCLC = tested on: HOP-62 NSCLC
NCI-H460 lung = tested on: NCI-H460 lung
UACC-257 melanoma = tested on: UACC-257 melanoma
786-0 renal = tested on: 786-0 renal
COLO 205 colon = tested on: COLO 205 colon
HCT-116 colon = tested on: HCT-116 colon
NCI/ADR-RES ovarian = tested on: NCI/ADR-RES ovarian
SW-620 colon = tested on: SW-620 colon
M14 melanoma = tested on: M14 melanoma
A549 NSCLC = tested on: A549 NSCLC
K-562 leukemia = tested on: K-562 leukemia
MALME-3M melanoma = tested on: MALME-3M melanoma
DU-145 prostate = tested on: DU-145 prostate
SNB-75 CNS = tested on: SNB-75 CNS
HL-60(TB) leukemia = tested on: HL-60(TB) leukemia
SK-MEL-2 melanoma = tested on: SK-MEL-2 melanoma
CCRF-CEM leukemia = tested on: CCRF-CEM leukemia
OVCAR-4 ovarian = tested on: OVCAR-4 ovarian
SN12C renal = tested on: SN12C renal
UO-31 renal = tested on: UO-31 renal
OVCAR-8 ovarian = tested on: OVCAR-8 ovarian
MCF7 breast = tested on: MCF7 breast
SK-MEL-28 melanoma = tested on: SK-MEL-28 melanoma
MDA-MB-435 = tested on: MDA-MB-435
ACHN renal = tested on: ACHN renal
PC-3 prostate = tested on: PC-3 prostate
SK-OV-3 ovarian = tested on: SK-OV-3 ovarian
NCI-H522 lung = tested on: NCI-H522 lung
SR leukemia = tested on: SR leukemia
SF-295 CNS = tested on: SF-295 CNS
CAKI-1 renal = tested on: CAKI-1 renal
SNB-19 CNS = tested on: SNB-19 CNS
HT29 colon = tested on: HT29 colon
SF-539 CNS = tested on: SF-539 CNS
HS 578T breast = tested on: HS 578T breast
T-47D breast = tested on: T-47D breast
MOLT-4 leukemia = tested on: MOLT-4 leukemia
NCI-H23 lung = tested on: NCI-H23 lung
HOP-92 NSCLC = tested on: HOP-92 NSCLC
SK-MEL-5 melanoma = tested on: SK-MEL-5 melanoma
UACC-62 melanoma = tested on: UACC-62 melanoma
HCT-15 colon = tested on: HCT-15 colon
TK-10 renal = tested on: TK-10 renal
BT-549 breast = tested on: BT-549 breast
NCI-H226 lung = tested on: NCI-H226 lung
LOX IMVI melanoma = tested on: LOX IMVI melanoma
IGROV1 ovarian = tested on: IGROV1 ovarian
SF-268 CNS = tested on: SF-268 CNS
RXF 393 renal = tested on: RXF 393 renal
EKVX NSCLC = tested on: EKVX NSCLC

## CCCCCCn1c(=N)n(CC(O)COc2cccc(C)c2)c2ccccc21 (centres undefined)
HCC-2998 colon
  GI50: 2.04 µM
  TGI: 3.65 µM
OVCAR-3 ovarian
  GI50: 2.13 µM
  TGI: 4.98 µM
KM12 colon
  GI50: 2.04 µM
  TGI: 4.17 µM
A498 renal
  GI50: 1.8 µM
  TGI: 7.35 µM
RPMI-8226 leukemia
  GI50: 1.98 µM
  TGI: 4.56 µM
MDA-MB-231 breast
  GI50: 2.2 µM
  TGI: 6.44 µM
OVCAR-5 ovarian
  GI50: 4.01 µM
  TGI: 15.1 µM
HOP-62 NSCLC
  GI50: 2.14 µM
  TGI: 3.88 µM
NCI-H460 lung
  GI50: 1.96 µM
  TGI: 3.88 µM
UACC-257 melanoma
  GI50: 2 µM
  TGI: 4.35 µM
786-0 renal
  GI50: 1.72 µM
  TGI: 3.24 µM
COLO 205 colon
  GI50: 1.9 µM
  TGI: 3.43 µM
HCT-116 colon
  GI50: 1.36 µM
  TGI: 2.89 µM
NCI/ADR-RES ovarian
  GI50: 2.82 µM
  TGI: 8.89 µM
SW-620 colon
  GI50: 1.82 µM
  TGI: 4.04 µM
M14 melanoma
  GI50: 1.83 µM
  TGI: 3.42 µM
A549 NSCLC
  GI50: 3.47 µM
  TGI: 13.3 µM
K-562 leukemia
  GI50: 2.07 µM
  TGI: 5.28 µM
MALME-3M melanoma
  GI50: 1.92 µM
  TGI: 3.66 µM
DU-145 prostate
  GI50: 3.67 µM
  TGI: 12.1 µM
SNB-75 CNS
  GI50: 2.54 µM
  TGI: 12.2 µM
HL-60(TB) leukemia
  GI50: 1.88 µM
  TGI: 3.79 µM
SK-MEL-2 melanoma
  GI50: 1.91 µM
  TGI: 4.26 µM
CCRF-CEM leukemia
  GI50: 2.36 µM
  TGI: 7.14 µM
OVCAR-4 ovarian
  GI50: 2.15 µM
  TGI: 6.27 µM
SN12C renal
  GI50: 3.21 µM
  TGI: 13.8 µM
UO-31 renal
  GI50: 3.88 µM
  TGI: 15.4 µM
OVCAR-8 ovarian
  GI50: 2.21 µM
  TGI: 4.74 µM
MCF7 breast
  GI50: 1.76 µM
  TGI: 3.55 µM
SK-MEL-28 melanoma
  GI50: 1.87 µM
  TGI: 3.51 µM
MDA-MB-435
  GI50: 1.83 µM
  TGI: 3.56 µM
ACHN renal
  GI50: 2.02 µM
  TGI: 4.25 µM
PC-3 prostate
  GI50: 2.16 µM
  TGI: 5.23 µM
SK-OV-3 ovarian
  GI50: 3.38 µM
  TGI: 9.32 µM
NCI-H522 lung
  GI50: 1.78 µM
  TGI: 3.82 µM
SR leukemia
  GI50: 1.76 µM
  TGI: 5.84 µM
SF-295 CNS
  GI50: 1.78 µM
  TGI: 3.78 µM
CAKI-1 renal
  GI50: 2.89 µM
  TGI: 10.6 µM
SNB-19 CNS
  GI50: 4.94 µM
  TGI: 20 µM
HT29 colon
  GI50: 1.73 µM
  TGI: 3.59 µM
SF-539 CNS
  GI50: 2.2 µM
  TGI: 4.43 µM
HS 578T breast
  GI50: 2.63 µM
  TGI: 8.27 µM
T-47D breast
  GI50: 2.19 µM
  TGI: 4.86 µM
MOLT-4 leukemia
  GI50: 2.39 µM
  TGI: 6.16 µM
NCI-H23 lung
  GI50: 2.89 µM
  TGI: 11.5 µM
HOP-92 NSCLC
  GI50: 2.2 µM
  TGI: 8.02 µM
SK-MEL-5 melanoma
  GI50: 1.77 µM
  TGI: 3.2 µM
UACC-62 melanoma
  GI50: 1.92 µM
  TGI: 4.97 µM
HCT-15 colon
  GI50: 2.12 µM
  TGI: 5.34 µM
TK-10 renal
  GI50: 3.71 µM
  TGI: 12.8 µM
BT-549 breast
  GI50: 1.8 µM
  TGI: 3.51 µM
NCI-H226 lung
  GI50: 3.14 µM
  TGI: 12.5 µM
LOX IMVI melanoma
  GI50: 1.82 µM
  TGI: 3.44 µM
IGROV1 ovarian
  GI50: 2.78 µM
  TGI: 10.2 µM
SF-268 CNS
  GI50: 3.9 µM
  TGI: 13.9 µM

## O=C(C(Cl)=C(Nc1ccccc1)Nc1ccccc1)C(Cl)Cl
HCC-2998 colon
  TGI: 37.3 µM
OVCAR-3 ovarian
  TGI: 79.3 µM
KM12 colon
  TGI: > 100 µM
A498 renal
  TGI: 74.5 µM
RPMI-8226 leukemia
  TGI: 78.9 µM
MDA-MB-231 breast
  TGI: 91.2 µM
HOP-62 NSCLC
  TGI: 69.7 µM
NCI-H460 lung
  TGI: > 100 µM
UACC-257 melanoma
  TGI: > 100 µM
786-0 renal
  TGI: 69.1 µM
COLO 205 colon
  TGI: 97.7 µM
HCT-116 colon
  TGI: 60.2 µM
NCI/ADR-RES ovarian
  TGI: > 100 µM
SW-620 colon
  TGI: 57 µM
M14 melanoma
  TGI: 43.8 µM
A549 NSCLC
  TGI: > 100 µM
K-562 leukemia
  TGI: 86.4 µM
MALME-3M melanoma
  TGI: 45 µM
DU-145 prostate
  TGI: > 100 µM
HL-60(TB) leukemia
  TGI: 51.9 µM
CCRF-CEM leukemia
  TGI: 77.6 µM
OVCAR-4 ovarian
  TGI: > 100 µM
SN12C renal
  TGI: 79.7 µM
RXF 393 renal
  TGI: 56.1 µM
UO-31 renal
  TGI: > 100 µM
OVCAR-8 ovarian
  TGI: 42.8 µM
MCF7 breast
  TGI: 62.5 µM
SK-MEL-28 melanoma
  TGI: > 100 µM
MDA-MB-435
  TGI: 39.8 µM
ACHN renal
  TGI: > 100 µM
PC-3 prostate
  TGI: > 100 µM
EKVX NSCLC
  TGI: 70.2 µM
SK-OV-3 ovarian
  TGI: 94.6 µM
NCI-H522 lung
  TGI: 37.4 µM
SR leukemia
  TGI: 49.4 µM
SF-295 CNS
  TGI: > 100 µM
CAKI-1 renal
  TGI: 45 µM
SNB-19 CNS
  TGI: 71.3 µM
HT29 colon
  TGI: 48.1 µM
SF-539 CNS
  TGI: > 100 µM
HS 578T breast
  TGI: > 100 µM
T-47D breast
  TGI: 75.9 µM
MOLT-4 leukemia
  TGI: 45.1 µM
NCI-H23 lung
  TGI: 93.2 µM
HOP-92 NSCLC
  TGI: 65.6 µM
SK-MEL-5 melanoma
  TGI: 35.6 µM
UACC-62 melanoma
  TGI: 54.1 µM
HCT-15 colon
  TGI: 34.1 µM
TK-10 renal
  TGI: > 100 µM
BT-549 breast
  TGI: > 100 µM
NCI-H226 lung
  TGI: 93.6 µM
LOX IMVI melanoma
  TGI: 30.3 µM
IGROV1 ovarian
  TGI: > 100 µM
SF-268 CNS
  TGI: 76.7 µM

Source: PubChem BioAssay (NCI)
